The target in assay [1] is T1, Cannabinoid receptor 2 (Homo sapiens, UniProt P34972). Put plainly: Percentage ([35S]GTP-gamma-S binding was determined from basal towards human cannabinoid receptor 2 at 1 uM concentration […]. It is filed as functional.
The target in assay [2] is T1, Cannabinoid receptor 2. Put plainly: In vitro inhibitory activity towards human cannabinoid receptors 2 using fluorescence assay.
Assay [3] concerns the target T1, Cannabinoid receptor 2. The assay is described as follows: In vitro inhibitory activity towards human cannabinoid receptors 2 using fluorescence assay at 10 uM concentration. Further details: scale not given: the % may be the effect or the level left.

T1 sequence (P34972 whole entry): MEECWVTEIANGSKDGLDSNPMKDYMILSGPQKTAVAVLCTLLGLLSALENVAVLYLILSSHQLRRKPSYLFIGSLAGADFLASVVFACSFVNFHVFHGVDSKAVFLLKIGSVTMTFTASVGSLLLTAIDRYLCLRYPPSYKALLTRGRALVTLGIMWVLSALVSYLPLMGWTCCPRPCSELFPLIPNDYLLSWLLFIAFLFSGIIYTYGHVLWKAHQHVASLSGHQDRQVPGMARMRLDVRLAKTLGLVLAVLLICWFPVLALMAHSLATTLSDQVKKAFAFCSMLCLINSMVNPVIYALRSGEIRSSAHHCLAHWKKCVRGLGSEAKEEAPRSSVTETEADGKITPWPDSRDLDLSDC

Compound `CCCn1c(C)c(C(=O)c2cccc3ccccc23)c2ccccc21` showed an Activity at Cannabinoid receptor 2 [1] of 142%.

For orientation: Ki means a measure of affinity in units of concentration, obtained from inhibition or displacement. Compound `CCCn1c(C)c(C(=O)c2cc(NC(=O)CN)cc3ccccc23)c2ccccc21` returned a Ki at Cannabinoid receptor 2 [2] of 420 nM.

Consider `CCCn1c(C)c(C(=O)c2cc(NC(=O)CNc3ccc([N+](=O)[O-])c4nonc34)cc3ccccc23)c2ccccc21`, for which, at Cannabinoid receptor 2 [3], the Activity was found to be 25%.

As for `CCCn1c(C)c(C(=O)c2cc([N+](=O)[O-])cc3ccccc23)c2ccccc21`, the Ki at Cannabinoid receptor 2 [2] came out at 143 nM. The same compound showed an Activity at Cannabinoid receptor 2 [1] of 134%.

On Cannabinoid receptor 2 [2], `CCCn1c(C)c(C(=O)c2cc(N)cc3ccccc23)c2ccccc21` gave a Ki of 191 nM. For the same compound, on Cannabinoid receptor 2 [1], the Activity is 151%.

These data come from ChEMBL document CHEMBL1142781, “Chemical modification of the naphthoyl 3-position of JWH-015: in search of a fluorescent probe to the cannabinoid CB2 receptor” (Bioorg Med Chem Lett, 2005).
